From patent US20050191612A1, “Method of screening insulin content enhancer” (priority 2002, published 2005)

Assays:
[1] = test system: insulin promoter activity in mouse pancreatic β cell line NIT1 cells; assay: Insulin promoter reporter (plasmid InsPro) luciferase activity in NIT1 cells; type: cell-based; details: compound 30 μmol/L, treatment 31 hours, p<0.01
Procedure: A transfection reagent (LIPOFECTAMINE 2000; GIBCO BRL, or FuGENE6; Boeringer Mannheim) was used to introduce plasmid InsPro (1-10 ng) prepared in Example 2 to mouse pancreatic β cell line NIT1 cells (4×10^4 cells). The trasfected cells were seeded on a 96-well plate. A Dulbecco modified Eagles' medium (DMEM) or F-12 medium containing 10% fetal calf serum (FCS) was used as a medium. After the seeding, the cells were cultured for 18-20 hours. […] After the medium was aspirated, the cells were lysed with a cell lysing solution (cell lysis buffer LCβ; Toyo Ink Mfg.). A luciferase activity of each lysate was measured by a commercially available measuring kit (PicaGene Luminescent kit; Toyo Ink Mfg.) and a measuring apparatus (ML3000 microtiter plate luminometer; Dynatech Laboratories). […] Further, where the above procedure is repeated except for using a cell not expressing the polypeptide for a screening tool, as a control cell, instead of the cell for a screening tool, when the insulin promoter reporter activity is not increased in the control cell, it can be judged that such a test substance can activate the polypeptide consisting of the amino acid sequence of SEQ ID NO: 2.
Next, compounds A-E were evaluated in a manner similar to that described in Example 5. More particularly, a 96-well plate coated with collagen was used as the 96-well plate, and DMEM was used as the medium. […]

[2] = test system: SD rats; assay: Glucose tolerance test for SD rats by one oral dose; type: in vivo, rat; details: 100 mg/kg intraperitoneally 5 min before 2 g/kg oral glucose, at 30 minutes, p<0.05
Procedure: (§1) SD rats (4 weeks old; CLEA JAPAN) were made to fast overnight, and 2 g/kg of glucose was orally administered. Compound A (100 mg/kg) had been intraperitoneally administered 5 minutes before the glucose administration. An appropriate amount of blood was taken at 0 minute, 30 minutes, 60 minutes, and 120 minutes after the glucose administration, and used for the measurement of a blood glucose level and a concentration of plasma insulin.
(§2) For measuring the blood glucose level, a supernatant obtained by mixing blood and 0.33 mol/L perchloric acid (blood:0.33 mol/L perchloric acid=1:10) and centrifuging the mixture (3000×g, 10 minutes, 4° C.) was used. For measuring the concentration of plasma insulin, a supernatant obtained by centrifuging blood (3000×g, 10 minutes, 4° C.) was used. Further, Glucose C test Wako (Wako) was used in the measurement of the blood glucose level, and a rat insulin assay system (Amersham) was used in the measurement of the concentration of plasma insulin.
FIG. 4 illustrates a time course of the concentration of plasma insulin (unit=ng/mL) after the oral administration of glucose, and FIG. 5 illustrates a time course of the blood glucose level (unit=mg/dL) after the oral administration of glucose. The mark “*” in FIGS. 4 and 5 denotes that a significant difference from the group to which compound A had not been administered was p<0.05 (Student's t-test).

[3] = test system: GK (Goto-Kakizaki) rats (type II diabetes models); assay: Glucose tolerance test for GK (Goto-Kakizaki) rats by one oral dose; type: in vivo, rat; details: 100 mg/kg orally, at 30 and 60 minutes after glucose administration
Procedure: as §1, §2
Then, a glucose tolerance test for GK (Goto-Kakizaki) rats (type II diabetes models with incomplete insulin secretion; 7 weeks old; Charles River Japan) by one oral dose was carried out. The GK rat line was established by selectively mating wistar rats in accordance with an index of a poor tolerance in an oral glucose tolerance test, by Yoshio Goto, et al., School of Medicine, Tohoku University, in 1975. […]

What does the source list for S=C(OCCc1ccncc1)c1ccccc1 [compound A, 2-(pyridine-4-yl)ethyl thiobenzoate]?
increased value of the reporter activity with respect to control group [1]: ≥ 1.5 times; concentration of plasma insulin after glucose administration [2]: significant increase; increase of the blood glucose level by the glucose administration [2]: significantly suppressed; increase of the blood glucose level by the glucose administration [3]: significantly suppressed
